The source of these data is article PMC10970644, “Molecular Pharmacology of Gelsemium Alkaloids on Inhibitory Receptors” (International Journal of Molecular Sciences, 2024).

Numbering of substitutions follows the chain as printed. Read-outs that look alike come from different tables or passages of the source.

The conditions of data set [1]: in vivo studies; cited from earlier work.
The target of the next data set is T1, α1GlyR G160E (Rattus norvegicus, UniProt P07727, G188E).
T1 construct: expressed in transfected cells; host or cells: HEK293 (ATCC CRL-1573)
T1 sequence (P07727 29-457 G188E): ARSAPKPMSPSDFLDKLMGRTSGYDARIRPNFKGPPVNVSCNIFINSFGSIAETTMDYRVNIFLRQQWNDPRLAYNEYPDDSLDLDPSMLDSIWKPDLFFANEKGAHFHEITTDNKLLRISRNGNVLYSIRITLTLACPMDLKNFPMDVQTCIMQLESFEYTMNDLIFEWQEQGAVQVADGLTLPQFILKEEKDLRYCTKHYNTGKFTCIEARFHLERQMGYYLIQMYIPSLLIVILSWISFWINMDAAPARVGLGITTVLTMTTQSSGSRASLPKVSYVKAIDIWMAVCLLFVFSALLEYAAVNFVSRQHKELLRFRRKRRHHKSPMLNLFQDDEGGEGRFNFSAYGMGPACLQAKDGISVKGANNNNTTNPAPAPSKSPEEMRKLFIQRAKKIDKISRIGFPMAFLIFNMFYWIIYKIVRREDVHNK
The data set is classed as cell-based. The protocol: (§1) The cells were transfected with plasmids encoding the following proteins: (i). rat GlyR α (1, 2, 3) subunits alone or combined with rat β subunits (Uniprot Accession Numbers: Q546L7, P22771, P20236, P20781); and (ii). rat GABAAR α1 combined with rat β2 and γ2 subunits (Uniprot Accession Numbers: P62813, P63138, P18508). The EGFP expression was used as a marker of successful protein expression. The transfection was performed using Lipofectamine 2000 (Invitrogen, ThermoFisher, Carlsbad, CA, USA) using the fabricant protocol. The plasmids used to express GlyRs and GABAARs have been previously described. To track the successful expression of GlyR β subunits and the GABAA γ2 or β2 subunit, these proteins were subcloned in the pIRES2-EGFP vector. The transfection ratio to obtain β-containing GlyRs was 1:5 of α:β, while the expression of γ2-containing GABAA receptors was 1:2:5 of α:β:γ2 [14, 15]. Chimeric GlyRs were described in a previous report. Site directed mutagenesis was performed by Charm Gene Science Mutagenex LLC. (Cumming, GA, USA). All the constructs were checked by full-length sequencing (SNPSaurus, Eugene, OR, USA).
(§2) In brief, patch electrodes (3–4 MΩ) were pulled from borosilicate glasses in a PC-100 puller (Narishige, Tokyo, Japan); then, they were filled with an intracellular solution, which contained (in mM) 120 CsCl, 8 EGTA, 10 HEPES (pH 7.4), 4 MgCl2, 0.5 GTP, and 2 ATP. The extracellular solution contained (in mM) 140 NaCl, 5.4 KCl, 2.0 CaCl2, 1.0 MgCl2, 10 HEPES (pH 7.4), and 10 glucose. Whole-cell patch-clamp recordings were performed at −60 mV with an Axoclamp 200B (Molecular Devices, Sunnyvale, CA, USA) or with HEKA EPC-10 (HEKA Elektronik GmbH, Reutlingen, Germany) amplifiers. […] Brief (3–5 s) pulses of agonist together with alkaloids were applied to cells. Stock solutions of the alkaloids were prepared in high purity distilled water. Aliquots of these stock solutions were diluted in reservoirs containing extracellular solution. […] The concentration–response curve parameters for the alkaloid inhibition (IC50, nH, and the maximal current inhibition) were obtained from the fitted curve of normalized concentration–response data points to the equation Iagonist = Imax (agonist)nH/((agonist)nH + (EC50)nH). The IC50 curves are best-fit mean ± SE from pooled data. […] The inhibition constant (Ki) was calculated using the Cheng–Prusoff equation (Ki = IC50/((2 + ([Agonist]/EC50)^nH)^1/nH − 1). The concentration of agonist corresponds to the sub-saturating agonist concentration used to obtain the IC50 for each alkaloid on a given GlyR subtype.

A further data set concerns the target T2, α1GlyR F63A (Rattus norvegicus, UniProt P07727, F91A).
T2 construct: expressed in transfected cells; host or cells: HEK293 (ATCC CRL-1573)
T2 sequence (P07727 29-457 F91A): T1 sequence (P07727 29-457 G188E) with F63A, E160G
The data set is classed as cell-based. The protocol: as §1, §2

A further data set concerns the target T3, α2 GlyR (Rattus norvegicus, UniProt P22771).
T3 construct: The cells were transfected with plasmids encoding the following proteins; expressed in transfected cells; host or cells: HEK293 (ATCC CRL-1573)
T3 sequence (P22771 28-452): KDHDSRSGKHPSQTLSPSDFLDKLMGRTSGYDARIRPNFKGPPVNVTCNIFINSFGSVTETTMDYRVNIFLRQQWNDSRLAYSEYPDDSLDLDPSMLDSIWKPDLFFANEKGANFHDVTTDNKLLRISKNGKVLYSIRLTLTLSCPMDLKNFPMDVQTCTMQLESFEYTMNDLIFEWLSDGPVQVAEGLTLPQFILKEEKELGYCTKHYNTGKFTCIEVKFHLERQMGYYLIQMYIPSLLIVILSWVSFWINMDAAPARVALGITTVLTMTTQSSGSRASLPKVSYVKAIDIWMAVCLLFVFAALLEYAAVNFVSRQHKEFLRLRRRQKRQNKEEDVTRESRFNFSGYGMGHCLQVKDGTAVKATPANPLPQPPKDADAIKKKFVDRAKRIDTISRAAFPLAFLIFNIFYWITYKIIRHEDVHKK
Nature of the data set: cell-based. The data set is classed as cell-based. The protocol:
as §1, §2

For the molecule `C=C[C@]12CN(C)[C@@H]3[C@H]4CO[C@H](C[C@H]41)[C@]1(C(=O)Nc4ccccc41)[C@@H]32` [gelsemine], in data set [1], the LD50 entry is on record as “higher than 50 mg/kg”. Also, the “alkaloid sensitivity of glycine-evoked currents (in words)” value on α1GlyR G160E (G160E, gelsemine 10 μM or 200 μM, 1 mM glycine) was “insensitive”; at α1GlyR F63A (F63A, gelsemine 10 μM or 200 μM, 2 mM glycine), “insensitive”. The “effect on glycine-evoked currents (in words)” value at α2 GlyR (wild-type, 50 μM gelsemine, 60 μM glycine) is recorded as “inhibited”.
Take `NCC(=O)O` [glycine, reference compound]: the EC50 at α2 GlyR (read-out: EC50 of agonist) was determined as 91 ± 6 µM.
Regarding `C=C[C@@]12CN(C)[C@H]3C[C@]14C(=Nc1ccccc14)[C@H]1C[C@@H]2[C@@H]3CO1` [koumine], in data set [1], the LD50 entry is on record as “higher than 50 mg/kg”. The “alkaloid sensitivity of glycine-evoked currents (in words)” value on α1GlyR G160E and at α1GlyR F63A was “not exert detectable effects” each time. For the same molecule, the IC50 against α2 GlyR is 11.2 ± 2.1 µM. Also, the nH on α2 GlyR (Hill coefficient of inhibition curve) turned out to be 1.0 ± 0.2. Besides, at α2 GlyR (calculated using the Cheng–Prussof equation), the Ki is 44.2 ± 4.6 µM.
